The text below walks through data of ChEMBL document CHEMBL1138693, “Synthesis and biological evaluation of piperazine-based derivatives as inhibitors of plasminogen activator inhibitor-1 (PAI-1)” (Bioorg Med Chem Lett, 2004).

The target in data set [1] is Plasminogen activator inhibitor 1 (Homo sapiens, UniProt P05121). As to the kind of experiment: Inhibitory concentration against plasminogen activator inhibitor-1 (PAI-1).
Data set [2] in a line: Clearance of compound in rats after intravenous administration. Type of data set: ADME, organism-based. As to conditions: rat, in vivo.
Data set [3] is described as follows: Volume of distribution of compound in rats after intravenous administration. Type of data set: ADME, organism-based. As to conditions: rat, in vivo, read-out: Vdss.
Data set [4] is described as follows: […] of compound in rats after peroral administration. Type of data set: ADME, organism-based. As to conditions: rat, in vivo, po.
The nature of data set [5]: Bioavailability in rat. Type of data set: ADME, organism-based. As to conditions: in vivo.
Data set [6] is described as follows: Half-life period of compound in rats after peroral administration. Type of data set: ADME, organism-based. As to conditions: rat, in vivo, po.
Data set [7] in a line: Maximal concentration in rats after peroral administration. Type of data set: ADME, organism-based. Also on record: route oral. As to conditions: rat, in vivo, po.

Chain of Plasminogen activator inhibitor 1 (P05121 whole entry): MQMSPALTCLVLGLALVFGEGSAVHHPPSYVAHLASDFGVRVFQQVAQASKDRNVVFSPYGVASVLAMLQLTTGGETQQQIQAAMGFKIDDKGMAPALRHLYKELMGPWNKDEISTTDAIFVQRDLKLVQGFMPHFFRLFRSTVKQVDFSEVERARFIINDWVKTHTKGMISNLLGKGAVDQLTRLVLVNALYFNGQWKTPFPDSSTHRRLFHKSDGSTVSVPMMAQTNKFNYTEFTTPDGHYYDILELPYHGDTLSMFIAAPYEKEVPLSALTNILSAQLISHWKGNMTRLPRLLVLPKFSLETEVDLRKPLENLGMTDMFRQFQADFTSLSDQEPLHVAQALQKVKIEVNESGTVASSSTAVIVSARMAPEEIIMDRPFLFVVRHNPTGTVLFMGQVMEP

Molecule `O=C(O)c1ccc(CNc2ccc([N+](=O)[O-])c(N3CCN(c4cccc(C(F)(F)F)c4)CC3)c2)cc1` yielded a half-inhibitory concentration (IC50) in data set [1] of 6700 nM. On the same count and under the same terms, under `O=C(O)c1ccc(Oc2cc(N3CCN(c4cccc(C(F)(F)F)c4)CC3)c([N+](=O)[O-])cc2C(F)(F)F)cc1` stands 2100 nM; under `O=C(O)c1cccc(Oc2cc(N3CCN(c4cccc(C(F)(F)F)c4)CC3)c([N+](=O)[O-])cc2C(F)(F)F)c1`, 3700 nM; under `O=C(O)c1ccccc1Oc1ccc([N+](=O)[O-])cc1CNc1ccc(N2CCN(c3cccc(C(F)(F)F)c3)CC2)c(C(F)(F)F)c1`, 1000 nM. On the same count and under the same terms, under `O=C(O)C1CCN(c2cc(N3CCN(c4ccc(C(F)(F)F)cc4)CC3)c([N+](=O)[O-])cc2C(F)(F)F)CC1` stands 1100 nM; under `O=C(O)C1CCN(c2cc(N3CCN(c4ccc(C(F)(F)F)cn4)CC3)c([N+](=O)[O-])cc2C(F)(F)F)CC1`, 3200 nM. On the same count and under the same terms, with `CC(C)[C@@H]1CC[C@@H](C)C[C@H]1OCC(=O)N1CCN(c2cc(N3CCC(C(=O)O)CC3)c(C(F)(F)F)cc2[N+](=O)[O-])CC1` the figure was more than 15000 nM; with `O=C(O)CCNc1cc(N2CCN(c3cccc(C(F)(F)F)c3)CC2)c([N+](=O)[O-])cc1C(F)(F)F`, 900 nM; with `O=C(O)C1CCN(c2cc(N3CCN(C(=O)c4cccc(C(F)(F)F)c4)CC3)c([N+](=O)[O-])cc2C(F)(F)F)CC1`, 5000 nM. Turning to `O=C(O)C1CCN(c2cc(N3CCN(Cc4cccc(C(F)(F)F)c4)CC3)c([N+](=O)[O-])cc2C(F)(F)F)CC1`, the IC50 in data set [1] was found to be 4300 nM. The same measure, in the same setting: under `O=C(O)C1CCN(c2cccc(F)c2CNc2ccc(N3CCN(c4cccc(C(F)(F)F)c4)CC3)c(C(F)(F)F)c2)CC1` stands 1000 nM; under `O=C(O)c1ccc(CNc2ccc(N3CCN(c4cccc(C(F)(F)F)c4)CC3)c(C(F)(F)F)c2)cc1`, 1700 nM; under `O=C(O)C1CCN(c2cc(N3CCN(C(=O)Nc4cccc(C(F)(F)F)c4)CC3)c([N+](=O)[O-])cc2C(F)(F)F)CC1`, 3500 nM. The molecule `O=C(O)c1ccc(CNc2nc(N3CCN(c4cccc(C(F)(F)F)c4)CC3)ccc2[N+](=O)[O-])cc1` came in with an IC50 in data set [1] of 3400 nM. The molecule `O=C(O)C1CCN(c2cccc(C(F)(F)F)c2CNc2ccc(N3CCN(c4cccc(C(F)(F)F)c4)CC3)c(C(F)(F)F)c2)CC1` gave a half-maximal inhibitory concentration (IC50) in data set [1] of 1700 nM.

In data set [1], `O=C(O)c1ccc(CNc2cc(N3CCN(c4cccc(C(F)(F)F)c4)CC3)c([N+](=O)[O-])cc2[N+](=O)[O-])cc1` displayed an IC50 of 1400 nM.

With `O=C(O)c1ccc(CNc2ccc([N+](=O)[O-])c(N3CCN(c4cccc(C(F)(F)F)c4)CC3)n2)cc1`, the IC50 in data set [1] is 6100 nM. On the same count and under the same terms, under `O=C(O)C1CCCN1c1c([N+](=O)[O-])ccc(F)c1CNc1ccc(N2CCN(c3cccc(C(F)(F)F)c3)CC2)c(C(F)(F)F)c1` (stereo not given) stands 1400 nM; under `O=[N+]([O-])c1cc(C(F)(F)F)c(N2CCN(c3cccc(C(F)(F)F)c3)CC2)cc1NC[P+]([O-])(O)O`, 1800 nM.

In data set [1], `O=C(O)C1CCCN(c2cc(N3CCN(c4cccc(C(F)(F)F)c4)CC3)c([N+](=O)[O-])cc2C(F)(F)F)C1` (stereo not given) came in with a half-maximal inhibitory concentration (IC50) of 2800 nM. Take `COc1cccc(CNc2ccc(N3CCN(c4cccc(C(F)(F)F)c4)CC3)c(C(F)(F)F)c2)c1Oc1ccc([N+](=O)[O-])cc1C(=O)O`: in data set [2], the clearance was found to be 10.4 mL/min/kg. In data set [3], the Vd came to 1.33 L/kg. In data set [4], the Tmax is 3 h. The bioavailability in data set [5] was 43%. In data set [6], this molecule gave a half-life of 2.8 h. This molecule also registered an IC50 in data set [1] of 500 nM. The molecule further displayed a Cmax in data set [7] of 480 nM. `COc1cccc(CNc2ccc(N3CCN(c4cccc(C(F)(F)F)c4)CC3)c(C(F)(F)F)c2)c1Oc1ccc(C(=O)O)cn1` showed a 50% inhibitory concentration (IC50) in data set [1] of 900 nM. The molecule `COc1cccc(CNc2ccc(N3CCN(c4cccc(C(F)(F)F)c4)CC3)c(C(F)(F)F)c2)c1Oc1c(C(=O)O)cc(Cl)cc1[N+](=O)[O-]` gave an IC50 in data set [1] of 900 nM. As for `O=C(O)c1ccc(CNc2cc(N3CCN(c4cccc(C(F)(F)F)c4)CC3)c([N+](=O)[O-])cc2C(F)(F)F)cc1`, inhibition in data set [1] was half-maximal at 1500 nM (IC50). Same read-out and setting: under `O=C(O)C1CCCN(c2cccc(F)c2CNc2ccc(N3CCN(c4cccc(C(F)(F)F)c4)CC3)c(C(F)(F)F)c2)C1` (stereo not given) stands 1700 nM; under `COC(=O)c1c(NCc2ccc(C(=O)O)cc2)ccc([N+](=O)[O-])c1N1CCN(c2cccc(C(F)(F)F)c2)CC1`, more than 15000 nM.

On to `O=C(O)C1CCN(c2c([N+](=O)[O-])ccc(F)c2CNc2ccc(N3CCN(c4cccc(C(F)(F)F)c4)CC3)c(C(F)(F)F)c2)CC1`, for which the IC50 in data set [1] is 700 nM. In data set [1], `O=C(O)C1CCCN1c1cc(N2CCN(c3cccc(C(F)(F)F)c3)CC2)c([N+](=O)[O-])cc1C(F)(F)F` (stereo not given) returned a half-maximal inhibitory concentration (IC50) of 7900 nM. Still for that read-out and setting: under `O=C(O)c1cc(Br)ccc1Oc1cccc(F)c1CNc1ccc(N2CCN(c3cccc(C(F)(F)F)c3)CC2)c(C(F)(F)F)c1` stands 800 nM. `O=C(O)C1CCN(c2cc(N3CCN(c4cccc(C(F)(F)F)c4)CC3)c([N+](=O)[O-])cc2C(F)(F)F)CC1` had an IC50 in data set [1] of 910 nM. On the same count and under the same terms, with `O=C(O)C1CCN(c2cc(N3CCN(c4c([N+](=O)[O-])ccc(C(F)(F)F)c4[N+](=O)[O-])CC3)c([N+](=O)[O-])cc2C(F)(F)F)CC1` the figure was more than 15000 nM. In data set [2], `CC(C)[C@@H]1CC[C@@H](C)C[C@H]1OCC(=O)Nc1cc(Oc2ccc(C(=O)O)cc2)ccc1[N+](=O)[O-]` came in with a clearance of 4.84 mL/min/kg. For the same molecule, in data set [3], the Vd came to 0.4 L/kg. Besides, the time of peak concentration (Tmax) in data set [4] stood at 3 h. Further, the bioavailability in data set [5] is 23%. In data set [6], this molecule gave a half-life of 3 h. In data set [7], the Cmax came out at 160 nM.

The molecule `O=C(O)c1ccc(CNc2cc(N3CCN(c4cccc(C(F)(F)F)c4)CC3)ccc2[N+](=O)[O-])cc1` yielded an IC50 in data set [1] of 2800 nM. The same measure, in the same setting: under `O=C(O)C1CCN(c2cc(N3CCN(c4cccc(C(F)(F)F)c4)CC3)c(C(F)(F)F)cc2[N+](=O)[O-])CC1` stands 880 nM.

Usually IC50 stands for the concentration at which inhibition is half-maximal. A high value points to a need for much substance. What is called clearance is a measure of how efficiently the substance is removed, as volume per time. Lower therefore signals a low capacity for elimination. Broadly, the Tmax is the time from dosing to the highest level. Broadly, the bioavailability is the share of a dose that reaches the circulation, judged against a reference dose that is usually intravenous. A lower bioavailability goes with little systemic uptake. Usually half-life stands for the time needed for the level to fall by half in the phase considered. The Cmax is the maximum level reached in the sampled fluid or tissue.
